# Experiment: Enhanced solubility of beta-cyclodextrin in water containing ClO2 (slurry test)
# Conditions: 100 g slurry, 5% (w/w) in 8000 ppm ClO2 vs ultrapure water, 200 rpm, 3 days
structure (smiles),measurement,value
OC[C@H]1O[C@@H]2O[C@H]3[C@H](O)[C@@H](O)[C@@H](O[C@H]4[C@H](O)[C@@H](O)[C@@H](O[C@H]5[C@H](O)[C@@H](O)[C@@H](O[C@H]6[C@H](O)[C@@H](O)[C@@H](O[C@H]7[C@H](O)[C@@H](O)[C@@H](O[C@H]8[C@H](O)[C@@H](O)[C@@H](O[C@H]1[C@H](O)[C@H]2O)O[C@@H]8CO)O[C@@H]7CO)O[C@@H]6CO)O[C@@H]5CO)O[C@@H]4CO)O[C@@H]3CO [beta-cyclodextrin],"weight of undissolved dried beta-cyclodextrin, less than control slurry",0.32 g

# — patent US20120070508A1, “Methods, Compositions, and Devices for Managing Chlorine Dioxide Release” (DHARMA IP, LLC, priority 2010, published 2012)
